These results are taken from patent EP4566600A1, “AFFECTIVE DISORDER AMELIORATING AGENT” (National University Corporation Kobe University, priority 2022, dated 2024).

The structures appear in SMILES notation.

Assay [1] deals with T1, GFP-PKCγ (Homo sapiens, UniProt P05129).
T1 construct: expressed in transfected cells; host or cells: COS7 cells, electroporation, 48 h
As to the kind of experiment: PKCγ activity inhibitory action in TPA-treated COS7 cells expressing GFP-PKCγ (Western blotting for PKCγ and phosphorylated PKCγ). It is filed as cell-based. The note with it: treated with TPA and flavonoid, n=2 (Fig. 5). On the procedure: The PKCγ activity inhibitory action of various flavonoids was tested. Scutellarin (Scu), baicalin (Bai), luteolin (Lut), and apigenin (Api) were used as various flavonoids. A plasmid encoding GFP-PKCγ was introduced into COS7 cells by electroporation and cultured for 48 hours to express GFP-PKCγ. After treating the cells with TPA (12-O-Tetradecanoylphorbol-13-acetate, activator of PKCγ) and each flavonoid, the cells were ground and proteins were subjected to SDS-PAGE. Thereafter, Western blotting was performed for PKCγ and phosphorylated PKCγ (activated form).

Assay [2] deals with affective disorder model mice (DGKβKO mice). The experiment in a line: elevated plus maze test (affective disorder evaluation system 1). Type of assay: in vivo. The conditions noted are these: relative to that in the case of taking placebo; male affective disorder model mice aged 8-11 weeks, drinking water containing 600 mg/L of lithium for 10 consecutive days. Here is the method: Mice in which DGKβ was knocked out (DGKβKO mice) were prepared as an affective disorder (mania) model. This model mice are not associated with dementia.
An elevated plus maze test was used. In an elevated plus maze, a passage with a wall (closed arm) and a passage without a wall (open arm) crossed each other in a cross shape, and normal mice (WT) were afraid of the open arm and stayed in the closed arm for a long time, while affective disorder model mice were less likely to feel anxiety and stayed in the open arm for a long time. Based on this, the ratio of the residence time in the open arm in the test time was used as an index of anxiety.
Male affective disorder model mice aged 8-11 weeks were allowed to freely drink water containing 600 mg/L of lithium for 10 consecutive days.
The affective disorder model mice orally administered with lithium were subjected to affective disorder evaluation system 1 (elevated plus maze test) to evaluate amelioration of affective disorder (mania).

As for `O=c1cc(-c2ccc(O)c(O)c2)oc2cc(O)cc(O)c12` [luteolin], the “PKCγ activity inhibitory action” value in assay [1] was “observed”.

For `[Li]` [lithium], the “ratio of the residence time in the open arm” value in assay [2] is given as “about 30%”.

`O=C(O)[C@H]1O[C@@H](Oc2cc3oc(-c4ccccc4)cc(=O)c3c(O)c2O)[C@H](O)[C@@H](O)[C@@H]1O` [baicalin]: the “PKCγ activity inhibitory action” value in assay [1] is listed as “observed”.

As to `O=c1cc(-c2ccc(O)cc2)oc2cc(O)cc(O)c12` [apigenin], the “PKCγ activity inhibitory action” value in assay [1] is “observed”.
